Assay results from patent US4592906A, “Ultra-violet absorbing compounds and compositions containing said compounds” (Graesser Laboratories, Ltd., priority 1984, dated 1986).
≈ marks a conversion by molar mass, not a printed value.

Experiments:
Type in all cases: physicochemical
[1] = Ultra-violet absorption (absorptivity, absorption maximum); settings: for Absorptivity: c in g/l, path length b in centimeters
Experimental: The absorptivity of the following p-dimethylaminocinnamate was measured using the formula [formula] wherein c is concentration in g/l and b is path length in centimeters: […]

[2] = Solubility in liquid paraffin (mineral oil) at 23; settings: organic solvent or mixture
Source text: In particular, their solubilities in liquid paraffin are as follows:
Ester paraffin at 23 (% wt/vol)

[3] = Miscibility with liquid paraffin (mineral oil), methanol and water
[4] = Physical state at room temperature

Structure (SMILES)	Absorptivity [1]	solubility [2]	further results
CCOC(=O)C=Cc1ccc(N(C)C)cc1 [(2), ethyl p-dimethylaminocinnamate, reference compound]	125 L/g/cm		
CC(C)CCOC(=O)C=Cc1ccc(N(C)C)cc1 [(a), 3-methylbutyl-p-dimethylaminocinnamate]		24 mg/mL (≈ 91.8 mM)	
CCCCCCCCOC(=O)C=Cc1ccc(N(C)C)cc1 [(c), 1-octyl p-dimethylaminocinnamate, reference compound]	89 L/g/cm	25 mg/mL (≈ 82.4 mM)	
CC(CCOC(=O)C=Cc1ccc(N(C)C)cc1)CC(C)(C)C (centres unmarked) [(d), 3,5,5-trimethylhexyl p-dimethylaminocinnamate]		29 mg/mL (≈ 91.3 mM)	
CCCCCCCCCCOC(=O)C=Cc1ccc(N(C)C)cc1 [(f), 1-decyl p-dimethylaminocinnamate]		21 mg/mL (≈ 63.3 mM)	

Continued, in another order:

Absorptivity [1]	solubility [2]	Structure (SMILES)	further results
	21 mg/mL (≈ 72.6 mM)	CCCCCCCOC(=O)C=Cc1ccc(N(C)C)cc1 [(b), 1-heptyl p-dimethylaminocinnamate]	
	12 mg/mL (≈ 38 mM)	CC1CC(OC(=O)C=Cc2ccc(N(C)C)cc2)CC(C)(C)C1 (centres unmarked) [(e), 3,3,5-trimethylcyclohexyl p-dimethylaminocinnamate]	
101 L/g/cm		CCCCC(CC)COC(=O)C=Cc1ccc(N(C)C)cc1 (centres unmarked) [Example 2-Ethylhexyl, 2-Ethylhexyl 4-dimethylaminocinnamate]	λmax ([1]; Example 1, prepared product): 360 nm; miscibility with liquid paraffin (mineral oil) [3]: completely miscible; miscibility with methanol [3]: completely miscible; physical state at room temperature [4]: liquid at room temperature
95 L/g/cm		CCCCCCC(C)OC(=O)C=Cc1ccc(N(C)C)cc1 (centres unmarked) [Example 2-Octyl, 2-octyl 4-dimethylaminocinnamate]	miscibility with liquid paraffin (mineral oil) [3]: completely miscible; miscibility with methanol [3]: completely miscible; physical state at room temperature [4]: liquid at room temperature
